Measured values as given in patent US10005733B2, “N-(4-hydroxy-4-methyl-cyclohexyl)-4-phenyl-benzenesulfonamide and N-(4-hydroxy-4-methyl-cyclohexyl)-4-(2-pyridyl)-benzenesulfonamide compounds and their therapeutic use” (PIMCO 2664 LIMITED, priority 2014, dated 2018).

Columns and labels:
[1] = molecular target: T1, CYP1A2 (Homo sapiens, UniProt P05177); assay: Human Cytochrome P450 Inhibition Assay (Bactosomes), CYP1A2; assay type: in vitro ADME; details: recombinant Bactosomes, probe substrate, 10 minutes at 37° C.
T1 construct: purchased Cypex Ltd, Dundee, Scotland UK
T1 sequence (P05177 1-516): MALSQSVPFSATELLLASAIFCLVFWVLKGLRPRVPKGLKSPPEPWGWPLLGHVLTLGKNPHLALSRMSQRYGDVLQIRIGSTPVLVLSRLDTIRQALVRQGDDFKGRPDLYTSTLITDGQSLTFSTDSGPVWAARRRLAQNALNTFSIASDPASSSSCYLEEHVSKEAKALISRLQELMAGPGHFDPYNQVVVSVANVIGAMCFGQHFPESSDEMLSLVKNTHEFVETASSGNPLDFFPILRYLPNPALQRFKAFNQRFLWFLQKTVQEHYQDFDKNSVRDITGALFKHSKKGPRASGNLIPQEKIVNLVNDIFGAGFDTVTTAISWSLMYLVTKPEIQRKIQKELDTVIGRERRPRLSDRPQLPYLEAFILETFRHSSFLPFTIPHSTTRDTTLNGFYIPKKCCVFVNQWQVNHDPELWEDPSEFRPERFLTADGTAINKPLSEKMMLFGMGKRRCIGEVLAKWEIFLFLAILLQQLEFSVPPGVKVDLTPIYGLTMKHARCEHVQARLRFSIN
Protocol: The ability of test compounds to inhibit five of the most relevant cytochrome P450 enzymes was measured by determination of the activity of cytochrome P450 enzymes in recombinant cytochrome preparations, called Bactosomes (Cypex Ltd, Dundee, Scotland UK DD2 1NH), in the presence of a specific probe substrate. Bactosomes are a highly efficient and cost-effective source of recombinant CYP450s which have a higher specific activity of enzyme compared to other sources, such as liver microsomes. […] The following CYP450 isoforms were assayed: CYP1A2, CYP2C9, CYP2C19, CYP2D6 and CYP3A4. The study of CYP450 inhibition potential in Bactosomes is accepted as a valuable model permitting rapid prediction of potential drug-drug interactions in vivo (see, e.g., Weaver et al., 2003).
Bactosomes were obtained from a commercial source (Cypex, Scotland, UK). Test compounds were incubated with Bactosomes at 6 concentrations. Samples were incubated for 10 minutes, after which the reaction was stopped and the samples analysed by LC-MS/MS Multiple Reaction Monitoring (MRM) for the presence/amount of substrate probe.
CYP450 enzymes (final protein 75 pmol/mL for CYP1A2; 12.5 pmol/mL for CYP2C19; and 25 pmol/mL for CYP2C9, 2D6 and 3A4), 0.1 M phosphate buffer pH 7.4, probe and test compound (final concentration 50, 15.8, 5, 1.58, 0.5 and 0.158 μM; diluted from 10 mM stock solution to give a final DMSO concentration of 1%) were pre-incubated at 37° C. for 5 minutes. The reaction was initiated by the addition of 20 μL of 10 mM NADPH in phosphate buffer. The final incubation volume was 200 μL. The following control inhibitors were used for each CYP450 inhibition assay: CYP1A2: α-naphthoflavone; CYP2C9: sulfaphenazole; CYP2C19: tranylcypromine; CYP2D6: quinidine; CYP3A4: ketoconazole.
Each compound was incubated for 10 minutes at 37° C. The reactions were stopped by the addition of methanol (final composition 1:1, aqueous: methanol). The incubation plates were shaken, chilled at […] for 2 hours, and centrifuged at 3500 rpm for 15 minutes at 4° C. to precipitate the protein.
IC50 values were determined by linear transformation within Microsoft Excel.

[2] = test system: IL-6 release from Thp1 macrophages; assay: Thp1 Macrophage IL-6 Release Assay (LPS-stimulated); assay type: cell-based; details: Homo sapiens, THP-1, 18 h, 100 ng/mL LPS
From the text: Anti-inflammatory effects were further characterised by assessing the production of interleukin-6 (IL-6) by human Thp-1 derived macrophages stimulated with a pro-inflammatory stimulus bacterial lipopolysaccharide (LPS). LPS acts with a cell-surface receptor, Toll-like receptor-4 to activate the NFκB and IRF signalling pathways to produce IL-6. The reduction of IL-6 in this stimulated assay is indicative of anti-inflammatory effects with utility in the treatment of conditions in which IL-6 production is aberrant. In vitro potency of test compounds in human cells was determined by incubation with Thp1 macrophages and subsequent stimulation with an inflammatory stimulus (bacterial lipopolysaccharide (LPS)) followed by measurement of cellular interleukin-6 (IL-6) release. […] The following day, the cells were stimulated with phorbol myristic acid (PMA) at a final concentration of 200 nM to induce differentiation and maintained for 3 days. Test compounds were prepared as […] solutions in DMSO and then serially diluted in DMSO prior to dilution in culture medium. The diluted compounds were added to the cultures 1 hour prior to stimulation with 100 ng/mL LPS. Compounds were tested in triplicate in a 9 point concentration response curve at concentrations of 30, 10, 3, 1, 0.3, 0.1, 0.03, 0.01 and 0.001 μM Following an 18 hour incubation at 37° C./5% CO2, the cell culture medium was collected and assayed for human IL-6 levels using the human IL-6 duo-set ELISA kit (R&D Systems). The average results for each test compound (n=3) were expressed as a percent (%) of the average control value. The average values across the concentrations tested were then plotted and the IC50 for the inhibition of IL-6 was calculated by fitting the data to a 4-parameter IC50 equation using GraphPad Prism software for Windows (Graph Pad Software, San Diego Calif. USA) or Grafit version 5 (Erithacus Software). Each experiment was repeated twice and the data are presented as the mean IC50 from both experiments.

[3] = footnote (2): Thp1 cells plated at 1.7 × 10^5 cells/well, GraphPad Prism
[4] = footnote (1): Thp1 cells plated at 3 × 10^5 cells/well, Grafit

SMILES	IC50 [1] [µM]	IC50 [2, 3] [nM]	IC50 [2, 4] [nM]
C[C@]1(O)CC[C@H](NS(=O)(=O)c2ccc(-c3ccc(C#N)cc3Cl)cc2)CC1 [HMC-C-09-A, 2′-Chloro-4′-cyano-N-((1r,4r)-4-hydroxy-4-methylcyclohexyl)-[1,1′-biphenyl]-4-sulfonamide]	23	170	
C[C@]1(O)CC[C@@H](NS(=O)(=O)c2ccc(-c3cc(F)c(F)cc3F)cc2)CC1 [HMC-C-10-B, 2′,4′,5′-Trifluoro-N-((1s,4s)-4-hydroxy-4-methylcyclohexyl)-[1,1′-biphenyl]-4-sulfonamide]	> 16	550	
C[C@]1(O)CC[C@@H](NS(=O)(=O)c2ccc(-c3ccc(C#N)cc3)c(F)c2)CC1 [HMC-C-07-B, 4′-Cyano-2-fluoro-N-((1s,4s)-4-hydroxy-4-methylcyclohexyl)-[1,1′-biphenyl]-4-sulfonamide]	> 50	18	
C[C@]1(O)CC[C@H](NS(=O)(=O)c2ccc(-c3ccc(Cl)cc3C#N)c(Cl)c2)CC1 [HMC-C-11-A, 2,4′-Dichloro-2′-cyano-N-((1r,4r)-4-hydroxy-4-methylcyclohexyl)-[1,1′-biphenyl]-4-sulfonamide]	11	260	
O=S(=O)(N[C@H]1CC[C@H](O)CC1)c1ccc(-c2ccc(F)cc2F)cc1 [ABD599, reference compound]	> 25	190	70
C[C@]1(O)CC[C@H](NS(=O)(=O)c2ccc(-c3ccc(C#N)cc3)c(F)c2)CC1 [HMC-C-07-A, 4′-Cyano-2-fluoro-N-((1r,4r)-4-hydroxy-4-methylcyclohexyl)-[1,1′-biphenyl]-4-sulfonamide]	> 50		
Cc1cc(S(=O)(=O)N[C@H]2CC[C@H](O)CC2)ccc1-c1ccc(F)cc1F [ABD735, reference compound]	> 25		
C[C@]1(O)CC[C@H](NS(=O)(=O)c2ccc(-c3ncc(Cl)cc3C#N)cc2)CC1 [HMC-N-05-A, 4-(5-Chloro-3-cyanopyridin-2-yl)-N-((1r,4r)-4-hydroxy-4-methylcyclohexyl)benzenesulfonamide]	36	300	
C[C@]1(O)CC[C@@H](NS(=O)(=O)c2ccc(-c3ccc(F)cc3F)cc2)CC1 [ABD899, reference compound]	> 25	40	30
C[C@]1(O)CC[C@H](NS(=O)(=O)c2ccc(-c3ccc(Cl)cc3C#N)c(F)c2)CC1 [HMC-C-08-A, 4′-Chloro-2′-cyano-2-fluoro-N-((1r,4r)-4-hydroxy-4-methylcyclohexyl)-[1,1′-biphenyl]-4-sulfonamide]	27	160	
C[C@]1(O)CC[C@H](NS(=O)(=O)c2ccc(-c3ccc(F)cc3F)cc2)CC1 [ABD900]		110	90
